Laboratory results reported in US11472771B2, “Process for making amino diaryl ethers and amino diaryl ethers hydrochloride salts” (CELLESTIA BIOTECH AG, priority 2018, dated 2022).

Key:
Assay type in all cases: physicochemical
[1] = Forced degradation: solid state stressed by UV/VIS radiation
Procedure: Instrumentation: • Light stability chamber: Solarbox 1500e • Oven: Salvis Vacuum drying oven VC-20 • Heating unit: Ikamag RET-GS with IKA ETS SD and stainless steel heating block • Vials: Supelco V-Vials and screw caps with PTFE septa • Gas tight vials: Agilent 10 mL HS-GC clear glass vials and crimp caps with Not applicable PTFE septa • Quartz glass cuvette: Hellma precision cuvette Suprasil, Type 117.100-QS, 10 mm path length, screw capped with silicone septa • HPLC: As described above
The HPLC test method described above was used to determine the assay and purity of 6-(4-(tert-butyl)phenoxy)pyridin-3-amine monohydrochloride before the forced degradation experiments and the area % content of individual impurities and degradation products in the 6-(4-(tert-butyl)phenoxy)pyridin-3-amine monohydrochloride samples obtained from the degradation experiments.
The assay and the purity of 6-(4-(tert-butyl)phenoxy)pyridin-3-amine monohydrochloride were determined using HPLC with UV detection at 220 nm utilizing the area normalization methodology for purity determination and external standard calibration for assay determination. During all experiments the UV spectra from 200 nm to 950 nm have been recorded and also the peak purity of 6-(4-(tert-butyl)phenoxy)pyridin-3-amine monohydrochloride was assessed.
Two samples of 20.23 mg and 20.17 mg of 6-(4-(tert-butyl)phenoxy)pyridin-3-amine monohydrochloride were weighed each into a quartz glass cuvette. Both cuvettes were closed with the screw cap. One of the cuvettes was protected by wrapping it in aluminium foil. This sample served as dark control. Both cuvettes were placed alongside each other in the light stability chamber and were then exposed in accordance to guideline to UV/VIS radiation applying energy of 500 W/m^2 until a total illumination of 1200 kLux·h was reached. After exposure to the UV/VIS radiation for an illumination of 1200 kLux·h the sample was brought to room temperature and the content of the cuvette was dissolved in about 2 mL of the sample solvent (acetonitrile/water 3:1 v/v). The obtained solution was quantitatively transferred into a 25 mL volumetric flask. Then the cuvette was rinsed five times with about 2 mL sample solvent, whereupon each time the content of the cuvette was also transferred into the 25 mL volumetric flask. After the flask was filled up to volume with the sample solvent and was shaken well, an aliquot of this solution was transferred into a HPLC vial for analysis. Result: In solid state 6-(4-(tert-butyl)phenoxy)pyridin-3-amine monohydrochloride is stable against UV/VIS radiation. After an illumination of 1200 kLux·h, applying an energy of 500 W/m^2, the purity decreased by 0.6 area % which was mainly related to the occurrence of two unknown impurities.

[2] = Stability study, storage 25° C., 60% rh
Procedure: (§1) For 6-(4-(tert-butyl)phenoxy)pyridin-3-amine monohydrochloride two different types of stability studies were performed including short-term and long-term stability studies, respectively, at 25° C. (RH, 60%), −5° C. and −20° C. for 36 months and an accelerated study at 40° C. (RH, 75%) over 6 months. In terms of analytical determinations six tests were involved including appearance, assay free base mean and purity mean, water, IR and XRPD. Appearance was determined by visual inspection. The product should be a white or off-white powder. Water content was determined according to USP <921> coulometric method. Identification of 6-(4-(tert-butyl)phenoxy)pyridin-3-amine monohydrochloride by IR spectroscopy was done according to USP <197>, comparing the spectrum obtained to that of the reference standard. X-Ray powder diffraction (XRPD) was performed according to USP <941> against the reference XRPD spectrum. Purity and assay of free base was done by HPLC-UV. Two methods were used. Mobile phases in the first method were water and acetonitrile. Mobile phases in the second method were water (0.5 mL of trifluoroacetic acid was added to 1000 mL of water) and acetonitrile (0.4 mL of trifluoroacetic acid was added to 1000 mL of acetonitrile). Equipment and chromatographic conditions for identification and determination of purity and assay of the 6-(4-(tert-butyl)phenoxy)pyridin-3-amine monohydrochloride by HPLC-UV according to the first method and the second method, respectively, are shown in Tables 5 and 6. [table] [table]

[3] = Accelerated stability study, storage 40° C., 75% rh; details: 6 months stability studies
Procedure: as §1

[4] = solid state, illumination of 1200 kLux·h, 500 W/m^2
[5] = 6 months stability studies, 25° C., 60% rh, 3 mths
[6] = 6 months stability studies, 25° C., 60% rh, 6 mths
[7] = 6 months stability studies, 25° C., 60% rh, Release data
[8] = 36 months stability studies, 25° C. 60% rh, 6 mths
[9] = 36 months stability studies, 25° C. 60% rh, 9 mths
[10] = 36 months stability studies, 25° C. 60% rh, 12 mths
[11] = 36 months stability studies, 25° C. 60% rh, 18 mths
[12] = 36 months stability studies, 25° C. 60% rh, 24 mths

decrease in the assay ([1]; dark control (cuvette wrapped in aluminium foil) in the light stability chamber): 2.4 % w/w
stability against UV/VIS radiation ([1]; solid state): stable
decrease in the assay [1, 4]: 2.1 % w/w
purity decrease [1, 4]: 0.6 area %
Assay free base, mean [2, 5]: 88.8 % m/m
IR, conforms to reference [2, 5]: complies
Purity, mean [2, 5]: 99.5 % area
Water [2, 5]: 0.01 % m/m
Assay free base, mean [2, 6]: 87.2 % m/m
IR, conforms to reference [2, 6]: complies
Purity, mean [2, 6]: 98.8 % area
Water [2, 6]: 0.01 % m/m
Assay free base, mean [2, 7]: 87.0 % m/m
IR, conforms to reference [2, 7]: complies
Purity, mean [2, 7]: 99.2 % area
Water [2, 7]: 0.02 % m/m
Water ([2]; 36 months stability studies, 25° C. 60% rh, 3 mths): 0.01 % m/m
Assay free base, mean [2, 8]: 88.6 % m/m
Purity, mean [2, 8]: 100.0 % area
Water [2, 8]: 0.01 % m/m
Assay free base, mean [2, 9]: 88.0 % m/m
Purity, mean [2, 9]: 100.0 % area
Water [2, 9]: 0.02 % m/m
Assay free base, mean [2, 10]: 86.9 % m/m
Purity, mean [2, 10]: 100.0 % area
Water [2, 10]: 0.02 % m/m
Assay free base, mean [2, 11]: 87.7 % m/m
Purity, mean [2, 11]: 100.0 % area
Water [2, 11]: 0.02 % m/m
Assay free base, mean [2, 12]: 87.6 % m/m
Water [2, 12]: 0.02 % m/m
Purity, mean ([2]; 36 months stability studies, 25° C. 60% rh, 24 mths, monohydrochloride): 100 % area
Water ([2]; 36 months stability studies, 25° C. 60% rh, Release data): 0.02 % m/m
Assay free base, mean ([3]; 3 mths): 89.2 % m/m
IR, conforms to reference ([3]; 3 mths): complies
Purity, mean ([3]; 3 mths): 99.6 % area
Water ([3]; 3 mths): 0.01 % m/m
Assay free base, mean ([3]; 6 mths): 87.4 % m/m
IR, conforms to reference ([3]; 6 mths): complies
Purity, mean ([3]; 6 mths): 98.9 % area
Water ([3]; 6 mths): 0.02 % m/m
XRPD, conforms to reference ([3]; 6 mths): complies
Assay free base, mean ([3]; Release data): 87.0 % m/m
IR, conforms to reference ([3]; Release data): complies
Purity, mean ([3]; Release data): 99.2 % area
Water ([3]; Release data): 0.02 % m/m
SMILES: CC(C)(C)c1ccc(Oc2ccc(N)cn2)cc1.Cl [6-(4-(tert-butyl)phenoxy)pyridin-3-amine monohydrochloride]
